Reference: patent US12213959B2, “Use of 3-O-sulfamoyloxy-7β-methyl-d-homo-6-oxaestra-1,3,5(10),8(9)-tetraen-17a-one to treat breast cancer” (priority 2018, dated 2025)
Values joined by “and” are separate entries in the source; they are usually repeats but may differ in a detail not shown here. Equal values may be shown once.

Key:
[1] = Acute oral toxicity, OECD 423 test; type: in vivo; details: for Body weight of individual mice: in g (unit assumed)
Procedure: 12 female mice were used in the experiment.
The dosage form for the administration was prepared ex tempore.
No deaths were detected either.
Further the observations were made once per day.
The medicament was administered in 2 steps with a break of 3 hours in a volume of 0.1 ml per 10 g of a body weight per step at the concentration of […], because the suspension in oil is thicker at higher concentrations and precludes the medicament to be administered through a gavage. […] Regardless of the group the width of the palpebral fissure of the animals was almost unchanged during the entire observation period. No pathological discharges from the eyes were detected. The nose was pink, moderately moist without pathological discharges. The fur of all mice was neat and shiny without bald spots. A 1% decrease of the animals body weight was registered on Day 2 and a 6% weight decrease on Day 7 from the initial weight (Table 3).

[2] = Body weight and tolerability during the antitumour study
Procedure: The study medicament was administered i.g. using a metal atraumatic gavage (with the procedure corresponds to the oral route of administration in clinical settings). […] Ex tempore solutions of the medicament for administration were prepared in olive oil (refined olive oil supplemented with unrefined extra virgin olive oil available under Global Village “Clasico” trademark, lot L:183351116, expiry date 26.04.2020, BAIEO, Spain). The administered volume was 0.1 ml per 10 g of a mouse body weight (0.2 ml of a ready-to-use formulation for a mouse of 20 g). The medicament administration was started 24 hours after the randomization. Duration of the administration course was 27-28 days.
This dose corresponds to a human daily dose of 20 mg/kg.
The evaluation criteria included the clinical observation data, animals body weights, time of death (if applicable), tumor growth over time, pathomorphological examination data (verification of a neoplasm during autopsy, assessment of toxic effects by macroscopic presentation of changes in the internal organs).
The animals body weights were recorded before the first administration of the medicaments and then twice per week using a verified high-speed electronic laboratory balance Ohaus Scout Pro (USA) with a maximum load of 2000 g and a measurement pitch of 0.1 g.

[3] = 300 mg/kg, Day 1 (before administration)
[4] = 2000 mg/kg, Day 1 (before administration)

C[C@H]1Oc2cc(OS(N)(=O)=O)ccc2C2=C1[C@@H]1CCCC(=O)[C@@]1(C)CC2 [medicament, 3-O-sulfamoyloxy-7β-methyl-O-homo-6-oxaestra-1,3,5(10),8(9)-tetraen]
visual signs of intoxication ([1]; 300 mg/kg i.g., entire observation period): None of the animals exhibited visual signs of intoxication
Average body weight [1, 3]: 27.4 g
Body weight of individual mice [1, 3]: 26.4 and 29.6 and 26.0 and 27.0 and 28.0 and 27.5
Average body weight ([1]; 300 mg/kg, Day 2): 27.1 g
Average body weight, % from baseline ([1]; 300 mg/kg, Day 2): −1%
average body weight decrease ([1]; 300 mg/kg, Day 2): 1%
Body weight of individual mice ([1]; 300 mg/kg, Day 2): 26.8 and 24.2 and 26.5 and 25.2 and 27.3 and 27.6
Average body weight ([1]; 300 mg/kg, Day 7): 27.6 g
Average body weight, % from baseline ([1]; 300 mg/kg, Day 7): 1%
Body weight of individual mice ([1]; 300 mg/kg, Day 7): 27.0 and 29.4 and 27.4 and 25.6 and 28.2 and 28.0
Average body weight ([1]; 300 mg/kg, Day 14): 28.1 g
Average body weight, % from baseline ([1]; 300 mg/kg, Day 14): 2%
Body weight of individual mice ([1]; 300 mg/kg, Day 14): 27.0 and 29.8 and 29.3 and 26.0 and 27.9 and 28.4
clinical signs of intoxication ([1]; 2000 mg/kg i.g.): No clinical signs of intoxication were observed
Average body weight [1, 4]: 26.2 g
Body weight of individual mice [1, 4]: 28.4 and 25.0 and 26.6 and 24.0 and 26.7 and 26.4
Average body weight ([1]; 2000 mg/kg, Day 2): 26.1 g
Average body weight, % from baseline ([1]; 2000 mg/kg, Day 2): −1%
decrease of body weight from the initial weight ([1]; 2000 mg/kg, Day 2): 1%
Body weight of individual mice ([1]; 2000 mg/kg, Day 2): 27.9 and 25.5 and 26.5 and 25.2 and 27.3 and 27.0
Average body weight ([1]; 2000 mg/kg, Day 7): 24.7 g
Average body weight, % from baseline ([1]; 2000 mg/kg, Day 7): −6%
decrease of body weight from the initial weight ([1]; 2000 mg/kg, Day 7): 6%
Body weight of individual mice ([1]; 2000 mg/kg, Day 7): 24.7 and 24.5 and 25.1 and 25.6 and 28.2 and 25.7
Average body weight ([1]; 2000 mg/kg, Day 14): 26.3 g
Body weight of individual mice ([1]; 2000 mg/kg, Day 14): 28.3 and 24.9 and 26.4 and 26.0 and 27.9 and 27.0
macroscopic changes of internal organs at autopsy ([1]; Day 15): no changes of the internal organs were detected
hazard category ([1]; OECD 423): 5th or unclassified category and 5th or non-classified category
hazard category ([1]; OECD 423, listed as anti-cancer agent): 5th hazard category
LD50 at 14 days ([1]; female, FVB transgenic for HER-2/neu, mouse, in vivo, po, oral (i.g.), mice, OECD 423): ≥ 5000 mg/kg
LD50 ([1]; oral (i.g.), mice, OECD 423, listed as anti-cancer agent): > 5000 mg/kg
signs of toxic damage to the internal organs at autopsy ([2]; end of the experiment): no specific signs of toxic damage to the internal organs
clinical signs of toxicity ([2]; mouse, in vivo): no clinical signs of toxicity being observed
